Laboratory results taken from ChEMBL document CHEMBL1157977, “Musidunin and musiduol, insect antifeedants from Croton jatrophoides” (2006).

Legend:
Assay type in all cases: functional
Pectinophora gossypiella [1] = assay: Antifeedant activity against Pectinophora gossypiella second-instar larvae assessed as drug level causing 50% protection of host plant by leaf disc assay relative to control
Pectinophora gossypiella [2] = assay: Antifeedant activity against Pectinophora gossypiella second-instar larvae assessed as drug level causing 95% protection of host plant by leaf disc assay relative to control
Spodoptera frugiperda [3] = assay: Antifeedant activity against Spodoptera frugiperda second-instar larvae assessed as drug level causing 50% protection of host plant by leaf disc assay relative to control
Spodoptera frugiperda [4] = assay: Antifeedant activity against Spodoptera frugiperda second-instar larvae assessed as drug level causing 95% protection of host plant by leaf disc assay relative to control

**Q.** Which Activity (Pectinophora gossypiella [1]) does the source give for `COC(=O)C[C@H]1C(C)(C)O[C@@]23OCC4=C5[C@H](O)C[C@@H](c6ccoc6)[C@]5(C)[C@@H](OC(C)=O)[C@H](OC(C)=O)[C@@H]4[C@@]12CCC3=O` here?
**A.** 3 µg/mL

**Q.** And the Activity (Pectinophora gossypiella [2])?
**A.** 10 µg/mL

**Q.** Which results are given for `CC(=O)O[C@H]1[C@H](OC(C)=O)[C@]2(C)[C@@H](C(=O)C[C@H]2c2ccoc2)[C@]2(C)[C@H](O)C[C@H]3C(C)(C)O[C@]4(O)C(=O)CC[C@]34[C@@H]12`?
**A.** Activity (Pectinophora gossypiella [1]): 4 µg/mL; Activity (Spodoptera frugiperda [3]): 2 µg/mL; Activity (Pectinophora gossypiella [2]): 20 µg/mL; Activity (Spodoptera frugiperda [4]): 36 µg/mL
